Here are results for one compound from PMC4764977, “AZD8797 is an allosteric non-competitive modulator of the human CX3CR1 receptor” (Biochemical Journal, 2016).

The target in assay [1] is T1, CX3CR1 (Homo sapiens, UniProt P49238).
T1 sequence (P49238 1-355): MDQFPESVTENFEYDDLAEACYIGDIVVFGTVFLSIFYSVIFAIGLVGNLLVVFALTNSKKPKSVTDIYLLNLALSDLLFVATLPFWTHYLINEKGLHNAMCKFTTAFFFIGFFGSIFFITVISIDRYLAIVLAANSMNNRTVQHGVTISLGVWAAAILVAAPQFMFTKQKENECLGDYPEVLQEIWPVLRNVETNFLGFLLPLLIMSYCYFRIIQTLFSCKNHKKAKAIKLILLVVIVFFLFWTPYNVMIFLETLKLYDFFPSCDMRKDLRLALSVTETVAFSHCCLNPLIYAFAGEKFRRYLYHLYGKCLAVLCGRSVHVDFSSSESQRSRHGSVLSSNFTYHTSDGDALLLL
Description: [35S]GTPγS accumulation assay, CHO-hCX3CR1 membranes. It is filed as biochemical. The arrangement: host or cells: CHO-K1. A general note: GTPγS is a poorly hydrolysed GTP analogue; its binding reports G protein activation.
Description: Adherent CHO-K1 cells stably expressing human CX3CR1 (CHO-hCX3CR1) were grown in F12 medium with GlutaMAX, 10% FBS (Sigma–Aldrich) and 400 μg·ml^−1 geneticin and harvested at 80% confluency. Cells were washed in PBS and lysed with an Ultra-Turrax Homogenizer in 50 mM Tris/HCl (pH 7.4) and 1 mM EDTA with Complete™ protease inhibitor (Roche). After centrifugation at 1000 g for 10 min, membranes were collected by ultracentrifugation at 100000 g for 45 min at 4°C. The membranes were resuspended in 10 mM Tris/HCl (pH 7.4), 1 mM EDTA and 10% sucrose, divided into aliquots, frozen in liquid nitrogen and stored in −80°C. Protein concentration was determined using the BCA method (Thermo Fisher Scientific).
0.56 μCi·ml^−1 [^35S]GTPγS and EC80 of CX3CL1 were then added. The plate was incubated at 30°C for 1 h and subsequently unbound [^35S]GTPγS was separated from bound by vacuum filtration to a Printed Filtermat B (PerkinElmer) using a Skatron Micro96 harvester and dried at 50°C for 1 h. The filters were soaked with a melt-on scintillator sheet (MeltiLex, PerkinElmer), sealed using a MeltiLex heat sealer and measured in a MicroBeta Trilux reader (PerkinElmer).

Assay [2] has as its target T1, CX3CR1. Kind of assay: PathHunter β-arrestin recruitment assay, CHO-K1 CX3CR1 β-arrestin cell line. The format is cell-based. The arrangement: host or cells: CHO-K1. The protocol: β-Arrestin recruitment was measured using the PathHunter™ enzyme fragment complementation assay from DiscoveRx and carried out according to the manufacturer's instructions. In short, 3500 cells per well in Opti-MEM were incubated together with different concentrations of AZD8797 and CX3CL1 in a 384-well plate. After 90 min of incubation at 37°C, detection reagent was added and incubation continued for 1 h at room temperature, before reading the plate with a Victor^2 luminescence plate reader (PerkinElmer). As in the [^35S]GTPγS binding assay, the final DMSO concentration was held constant at 1%.

For assay [3], the target named is T1, CX3CR1. Kind of assay: Dynamic mass redistribution (DMR), CHO-hCX3CR1 cells. The arrangement: host or cells: CHO-K1. It is filed as cell-based. Here is the method:
CHO-hCX3CR1 cells were seeded at 12000 cells per well in DMEM with 10% FBS and RPMI-8226 cells at 8000 cells per well in RPMI 1640 medium with GlutaMAX and 20% FBS on 384-well fibronectin-coated EPIC™ biosensor plates (Corning) and cultured at 37°C for 24 h. At 18–24 h prior to compound treatment, the medium was replaced with serum-free medium with or without 100 ng·ml^−1 PTX. Cells were then washed with assay buffer (HBSS, 20 mM HEPES (pH 7.4) and 0.01% BSA) and allowed to equilibrate at 26°C for 1 h inside the EPIC™ plate reader. Following equilibration, a baseline scan was performed before adding AZD8797 or CX3CL1 using a CyBi-Well vario (CyBio). Dynamic mass redistribution (DMR) was then measured during a 60 min scan. As in the [^35S]GTPγS binding assay, the final DMSO concentration was held constant at 1%.

Assay [4] has as its target T1, CX3CR1. Kind of assay: Equilibrium saturation binding, CHO-hCX3CR1 membranes. The arrangement: host or cells: CHO-K1. The protocol:
Cells were washed in PBS and lysed with an Ultra-Turrax Homogenizer in 50 mM Tris/HCl (pH 7.4) and 1 mM EDTA with Complete™ protease inhibitor (Roche). […] Protein concentration was determined using the BCA method (Thermo Fisher Scientific). […] The filter plate was washed in ice-cold 25 mM HEPES (pH 7.4), 5 mM MgCl2, 1 mM CaCl2 and 500 mM NaCl and dried at 50°C for 1 h. Scintillation cocktail, Optiphase Supermix (PerkinElmer) was added to each well and the radioactivity was measured using a MicroBeta Trilux reader (PerkinElmer). […] The DMSO concentration was held constant at 1%. where Kd is the radioligand dissociation constant. Saturation binding isotherms were analysed by non-linear regression and globally fitted to a hyperbolic one-site binding model taking into account both NSB and total binding to calculate the total receptor number (Bmax) and radioligand dissociation constant (Kd): […] NSB=NS·X+Background, where NS is the concentration-dependent NSB. To visualize the manner of binding of CX3CL1 and AZD8797, a diagnostic affinity ratio plot designed to compare strictly competitive behaviour with allosteric interactions was used. […] For single site competitive interactions, the resulting linear plot has the slope of 1.0. For allosteric but competitive interactions, the slope will start at 1.0 but progressively deviate from unity, eventually reaching a limit governed by the allosteric ternary complex model co-operativity factor α [21, 22].

The subject of assay [5] is untransfected CHO-K1 cells. Kind of assay: Dynamic mass redistribution (DMR), untransfected CHO-K1 cells. It is filed as cell-based, Chinese hamster.
The subject of assay [6] is CX3CR1. The arrangement: method as in PMID 24706865. Conditions: cited from earlier work.
The target in assay [7] is T1, CX3CR1. The arrangement: method as in PMID 23516963. Conditions: HEK293 cells co-transfected with Gqi5-protein; read-out: Ki, 125I-CX3CL1 competition assay; cited from earlier work.
For assay [8], the target named is T1, CX3CR1. Description: 125I-CX3CL1 kinetic radioligand binding, CHO-hCX3CR1 membranes. Also noted: host or cells: CHO-K1. The protocol: Incubation times ranged from 2.5 min to 4 h. For the association experiments, the radioligand data were fitted to the following monophasic exponential association equation and the association rate (kon) was calculated using the added amounts of radioligand (L) and dissociation rate (koff) as constants. koff was measured in separate dissociation experiments. The dissociation data were fitted to the monophasic exponential decay equation: where Y0 is the binding (cpm) at time zero, X is the time and NS is the (non-specific) binding at infinite times. […] Multiple compound dissociation data were fitted to the biphasic exponential decay equation: […]

Setting [9] is: increasing concentrations of unlabelled compound.
Setting [10] is: in presence of 10 μM AZD8797 + 100 nM CX3CL1, two-phase model, n=3.

Structures are written as SMILES.

Regarding `CC(C)C[C@H](CO)Nc1nc(S[C@@H](C)c2ccccc2)nc2nc(N)sc12` [AZD8797], the “Agonistic effect in [35S]GTPγS accumulation” value at CX3CR1 [1] (compound alone, results not shown) is reported as “No agonistic effect”. Also, on CX3CR1 [1] (response from 2 nM CX3CL1 (EC80), n > 24, read-out: IC50, inhibition of CX3CL1-induced [35S]GTPγS accumulation), the IC50 was 340 nM. Also, the “Increase of CX3CL1 efficacy in β-arrestin recruitment” value at CX3CR1 [2] (16 and 140 nM AZD8797, efficacy enhanced, not potency) is about 2 fold. In addition, the “Effect on β-arrestin recruitment, compound alone” value at CX3CR1 [2] (AZD8797 alone) was “no effect”. Besides, the “CX3CL1-induced β-arrestin recruitment at higher concentrations” value on CX3CR1 [2] (higher concentrations of AZD8797) was “almost abolished”. For the same compound, the “Concentration needed for agonist response vs concentration needed to block CX3CL1 binding and functional response in membranes” value at CX3CR1 [3] (CHO-hCX3CR1 cells vs purified membranes) is recorded as “more than 10 fold”. Besides, the “Effect of PTX treatment on DMR signal” value at CX3CR1 [3] (CHO-hCX3CR1 cells, 100 ng·ml^−1 PTX) is recorded as “reduced”. Further, on CX3CR1 [3] (CHO-hCX3CR1 cells, compound alone, no plateau, n=3), the “Maximum effect, DMR” value was 79 % of CX3CL1. The EC50 at CX3CR1 [3] (CHO-hCX3CR1 cells, compound alone, no plateau, n=3, read-out: Potency, DMR agonism) was over 5000 nM. The “Antagonist response in DMR” value at CX3CR1 [3] (challenging EC80 of CX3CL1 with different concentrations, cell line not specified, results not shown) was “could not measure any antagonist response”. On CX3CR1 [4] (setting [9]), the “Effect on Bmax of 125I-CX3CL1 saturation binding” value is “decreased” and the “Effect on Kd of 125I-CX3CL1 saturation binding” value is listed as “without any effect”. This compound also yielded a Kd on CX3CR1 [4] (one-site model, n=4) of 12 nM. Moreover, in assay [5], the “DMR response in untransfected cells” value is recorded as 38 % of AZD8797 effect in transfected cells and the “DMR response in untransfected cells (words)” value is listed as “only weakly responded”. Besides, the “Efficacy in rat model for multiple sclerosis” value in the assay with CX3CR1 [6] is recorded as “efficacy”. Also, the Ki at CX3CR1 [7] was 4 nM. Moreover, at CX3CR1 [8] (setting [10]), the “k1off of 125I-CX3CL1 dissociation (fast first phase)” value came out at 0.45 min⁻¹ and the “k2off of 125I-CX3CL1 dissociation (second slower phase)” value was 0.0060 min⁻¹. At CX3CR1 [8] (results not shown), the “Effect on 125I-CX3CL1 association rate (kon)” value is recorded as “no effect” and the “Effect on maximal binding of 125I-CX3CL1 in association experiments” value is given as “decreased”.

A word on the IC50: it is the midpoint of a concentration-inhibition curve. Broadly, the Kd is the constant that tells how readily two partners part at equilibrium. A low value points to tighter binding. One may read the Ki as the dissociation constant of the complex between target and ligand, obtained from inhibition or displacement.
